Key:
[1] = Inhibition of Soybean LOX using linoleic acid as substrate incubated for 5 mins prior to substrate addition measured after 10 mins by spectrophotometric analysis; parameters: species or system Glycine max
[2] = Inhibition of LOX (unknown origin); parameters: species or system Homo sapiens

SMILES	IC50 [1] [µM]	IC50 [2] [µM]
NC(=O)n1c(O)c(C(=O)c2cccs2)c2cc(Cl)ccc21 [TANIDAP SODIUM]	41.6	–
COc1c(C(C)C)cc2c(c1OC)[C@@]13CCC(=O)C(C)(C)[C@@H]1[C@H](OC3=O)C2=O [TAXUSABIETANE C]	69	–
COc1c(C(C)C)cc2c(c1O)[C@@]1(C)CCC(=O)C(C)(C)[C@@H]1CC2=O [TAXUSABIETANE A]	–	57
O=c1cc(-c2ccccc2)oc2cc(O)c(O)c(O)c12 [BAICALEIN]	22.1	–
COc1c(C(C)C)cc2c(c1O)C=C1C=CC(=O)C(C)(C)C1CC2=O (stereo not given) [TAXAMAIRIN F]	73	–
